The text below walks through data of patent US9173951B2, “Carbohydrate-based drug delivery polymers and conjugates thereof” (NEKTAR THERAPEUTICS, priority 2008, dated 2015).

The assay has as its system db/db diabetic mice. The assay can be described thus: Blood glucose levels in db/db diabetic mice after i.p. injection. In kind it is in vivo. On the procedure: Blood glucose levels were measured At different time points after dosing.
Study Procedure: Animals were acclimated to researcher's handling procedures. Baseline glucose levels were measured prior to drug administration. Outlier animals with glucose level <300 or >600 mg/dL were excluded from the study. Animals were assigned randomly to different groups, as follows:
At different time points (1, 2, 4, 8, and 24 hrs), blood was collected by tail clipping, and glucose level was measured using a One Touch® Ultra glucometer (Johnson & Johnson; Life Scan Ltd.)

As to insulin, the “Glucose level, mean” value (5 ug/mouse ip, 1 hr) was 265 mg/dL; the “Glucose level, mean” value (5 ug/mouse ip, 2 hr) came out at 352 mg/dL; the “Glucose level, mean” value (5 ug/mouse ip, 4 hr) stood at 587 mg/dL; the “Glucose level, mean” value (5 ug/mouse ip, 8 hr) amounted to 538 mg/dL; the “Glucose level, mean” value (5 ug/mouse ip, 24 hr) turned out to be 538 mg/dL; the “Glucose level, mean” value (5 ug/mouse ip, time 0 (baseline)) came out at 510 mg/dL. Besides, the “Glucose level, mean” value runs as follows: (50 ug/mouse ip, 1 hr) 210 mg/dL; (50 ug/mouse ip, 2 hr) 150 mg/dL; (50 ug/mouse ip, 4 hr) 550 mg/dL; (50 ug/mouse ip, 8 hr) 558 mg/dL; (50 ug/mouse ip, 24 hr) 541 mg/dL; (50 ug/mouse ip, time 0 (baseline)) 445 mg/dL. For the same substance, the “reduction of glucose level vs time 0” value was 48% (5 ug/mouse ip, 1 hr); 31% (5 ug/mouse ip, 2 hr); 53% (50 ug/mouse ip, 1 hr); 67% (50 ug/mouse ip, 2 hr).
For the substance dextran-butyrALD-40K-insulin [20b], the “Glucose level, mean” value is listed as 263+39 mg/dL (250 ug/mouse ip, 1 hr); 263 mg/dL (250 ug/mouse ip, 1 hr, listed as Dex-Ins); 192+36 mg/dL (250 ug/mouse ip, 2 hr); 192 mg/dL (250 ug/mouse ip, 2 hr, listed as Dex-Ins); 462 mg/dL (250 ug/mouse ip, 4 hr); 494 mg/dL (250 ug/mouse ip, 8 hr). Besides, the “Glucose level, mean” value is, setting by setting: (250 ug/mouse ip, 24 hr) 517 mg/dL; (250 ug/mouse ip, time 0 (baseline)) 495+32 mg/dL; (250 ug/mouse ip, time 0 (baseline), listed as Dex-Ins) 495 mg/dL. The “reduction of glucose level vs time 0” value reads like this: (250 ug/mouse ip, 1 hr) 47%; (250 ug/mouse ip, 2 hr) 61%.
